Measurements published in patent US11623002B2, “ALK polypeptides and methods of use thereof” (Elicio Therapeutics, Inc., priority 2016, dated 2023).
“Also recorded” adds a separate entry of the source.

Experiments:
CD4 T-cell = experiment: Intracellular cytokine staining (ICS), CD4 T-cell response to individual ALK polypeptides; format: cell-based; settings: spleen and lymph node cells of mice immunized with SEQ ID NOs: 1-59 mixed with Freund's adjuvant; re-stimulated with individual ALK polypeptides; FIGS. 2A and 2B
Source text: (§1) To identify the immunodominant ALK polypeptides, mice were immunized with ALK polypeptides having the sequences of SEQ ID NOs: 1-59 listed in Table 1A mixed with Freund's adjuvant. Spleens and lymph nodes were then removed from immunized mice and assayed by intracellular cytokine staining (ICS).

CD8 T-cell = experiment: Intracellular cytokine staining (ICS), CD8 T-cell response to individual ALK polypeptides; format: cell-based; settings: spleen and lymph node cells of mice immunized with SEQ ID NOs: 1-59 mixed with Freund's adjuvant; re-stimulated with individual ALK polypeptides; FIGS. 2C and 2D
Source text: as §1

| Sequence | CD4 T-cell responses (ICS) (CD4 T-cell) | CD8 T-cell response (ICS) (CD8 T-cell) |
| --- | --- | --- |
| GDLKSFLRETRPRPS [SEQ ID NO: 22] | strongest CD4 T-cell responses |  |
| KNCPGPVYRIMTQCW [SEQ ID NO: 52] | strongest CD4 T-cell responses |  |
| LDFLMEALIISKFNH [SEQ ID NO: 14] | strongest CD4 T-cell responses | strongest CD8 T-cell response |
| LTCPGPGRVAKIGDF [SEQ ID NO: 33] |  | strongest CD8 T-cell response; also recorded: CD8 T-cell (CD8) stimulating sequence |
| PSPLQVAVRTLPEVC [SEQ ID NO: 10] | strongest CD4 T-cell responses | strongest CD8 T-cell response |
| PVYRIMTQCWQHQPE [SEQ ID NO: 53] | strongest CD4 T-cell responses |  |
| QNIVRCIGVSLQSLP [SEQ ID NO: 17] | strongest CD4 T-cell responses |  |
